Measurements reported in patent US20250092046A1, “TYROSINE KINASE INHIBITORS” (THE UNIVERSITY COURT OF THE UNIVERSITY OF EDINBURGH, priority 2021, published 2025).

Key:
[1] = biological target: SRC (Homo sapiens, UniProt P12931); test: Kinase screening assay (mobility shift, LabChip); type: biochemical; settings: 0.5 micromolar compound
Method: (§1) A 4× Substrate/ATP/Metal (1 […], 5 mmol/L Mg^2+) solution was prepared with buffer (20 mmol/L HEPES, 0.01% Triton X-100, 5 mmol/L DTT, pH 7.5), and a 2× kinase solution was also prepared with buffer (20 mmol/L HEPES, 0.01% Triton X-100, 1 mmol/L DTT, pH 7.5). 5 μL of 4× compound solution, 5 μL of 4× Substrate/ATP/Metal solution, and 10 μL of 2× kinase solution were mixed and incubated in a well of polypropylene 384 well microplate for 1 hour at room temperature. 70 μL of Termination Buffer (QuickScout Screening Assist MSA) was added to the well. The reaction mixture was applied to LabChip™ system, and the product and substrate peptide peaks were separated and quantitated.

[2] = biological target: LYNa (Homo sapiens, UniProt P07948); test: Kinase screening assay (mobility shift, LabChip); type: biochemical; settings: 0.5 micromolar compound
Method: as §1

[3] = biological target: PDGFR alpha (Homo sapiens, UniProt P16234); test: Kinase screening assay (mobility shift, LabChip); type: biochemical; settings: 0.5 micromolar compound
Method: as §1

[4] = biological target: FGR (Homo sapiens, UniProt P09769); test: Kinase screening assay (mobility shift, LabChip); type: biochemical; settings: 0.5 micromolar compound
Method: as §1

[5] = biological target: LCK (Homo sapiens, UniProt P06239); test: Kinase screening assay (mobility shift, LabChip); type: biochemical; settings: 0.5 micromolar compound
Method: as §1

[6] = biological target: EGFR (Homo sapiens, UniProt P00533); test: Kinase screening assay (mobility shift, LabChip); type: biochemical; settings: 0.5 micromolar compound
Method: as §1

[7] = biological target: YES (Homo sapiens, UniProt P07947); test: Kinase screening assay (mobility shift, LabChip); type: biochemical; settings: 0.5 micromolar compound
Method: as §1

[8] = biological target: KIT (Homo sapiens, UniProt P10721); test: Kinase screening assay (mobility shift, LabChip); type: biochemical; settings: 0.5 micromolar compound
Method: as §1

[9] = biological target: FYNa (Homo sapiens, UniProt P06241); test: Kinase screening assay (mobility shift, LabChip); type: biochemical; settings: 0.5 micromolar compound
Method: as §1

[10] = biological target: Her4 (Homo sapiens, UniProt Q15303); test: Kinase screening assay (mobility shift, LabChip); type: biochemical; settings: 0.5 micromolar compound
Method: as §1

[11] = biological target: HCK (Homo sapiens, UniProt P08631); test: Kinase screening assay (mobility shift, LabChip); type: biochemical; settings: 0.5 micromolar compound
Method: as §1

[12] = biological target: KDR (Homo sapiens, UniProt P35968); test: Kinase screening assay (mobility shift, LabChip); type: biochemical; settings: 0.5 micromolar compound
Method: as §1

[13] = biological target: RET (Homo sapiens, UniProt P07949); test: Kinase screening assay (mobility shift, LabChip); type: biochemical; settings: 0.5 micromolar compound
Method: as §1

[14] = biological target: ABL (Homo sapiens, UniProt P00519); test: Kinase screening assay (mobility shift, LabChip); type: biochemical; settings: 0.5 micromolar compound
Method: as §1

[15] = biological target: BRK (Homo sapiens, UniProt Q13882); test: Kinase screening assay (mobility shift, LabChip); type: biochemical; settings: 0.5 micromolar compound
Method: as §1

[16] = test system: MDA-MB-231 breast cancer cells; test: Cell viability assay (PrestoBlue); type: cell-based; settings: Homo sapiens, 120 h, 5 days treatment
Method: (§2) Cells were grown in Dulbecco's Modified Eagle Medium (DMEM) or Roswell Park Memorial Institute (RPMI) medium supplemented with serum (10% fetal bovine serum) and L-glutamine (2 mM) and incubated in a Heracell 240i tissue culture incubator at 37° C. and 5% Co2.
(§3) After 48 hours, the media was aspirated from each well and replaced with 95 μl of fresh medium. Compounds, including DMSO, were prepared at 20× in DMEM medium in a separate 96-well intermediate plate. 5 μl from the intermediate plate was then added to each well containing cells. Untreated cells were incubated with DMSO (0.1% v/v). After 5 days, PrestoBlue™ cell viability reagent (10 μl) was added to each well and the plates incubated for 60-90 min. Fluorescence emission was detected using a fluorescence plate reader (excitation 540 nm, emission 590 nm). All conditions were normalised to the untreated cells (100%) and dose-response curves were fitted using GraphPad Prism software.

[17] = test system: SRC and its family members; test: Kinase screening assay, selectivity across the panel; type: biochemical; settings: kinase panel of Table 1, 0.5 micromolar
Method: as §1

[18] = test system: cancer cell lines; test: Screening in cancer cell lines (cell viability); type: cell-based
Method: as §2, §3

KIT, sequence (P10721 26-976): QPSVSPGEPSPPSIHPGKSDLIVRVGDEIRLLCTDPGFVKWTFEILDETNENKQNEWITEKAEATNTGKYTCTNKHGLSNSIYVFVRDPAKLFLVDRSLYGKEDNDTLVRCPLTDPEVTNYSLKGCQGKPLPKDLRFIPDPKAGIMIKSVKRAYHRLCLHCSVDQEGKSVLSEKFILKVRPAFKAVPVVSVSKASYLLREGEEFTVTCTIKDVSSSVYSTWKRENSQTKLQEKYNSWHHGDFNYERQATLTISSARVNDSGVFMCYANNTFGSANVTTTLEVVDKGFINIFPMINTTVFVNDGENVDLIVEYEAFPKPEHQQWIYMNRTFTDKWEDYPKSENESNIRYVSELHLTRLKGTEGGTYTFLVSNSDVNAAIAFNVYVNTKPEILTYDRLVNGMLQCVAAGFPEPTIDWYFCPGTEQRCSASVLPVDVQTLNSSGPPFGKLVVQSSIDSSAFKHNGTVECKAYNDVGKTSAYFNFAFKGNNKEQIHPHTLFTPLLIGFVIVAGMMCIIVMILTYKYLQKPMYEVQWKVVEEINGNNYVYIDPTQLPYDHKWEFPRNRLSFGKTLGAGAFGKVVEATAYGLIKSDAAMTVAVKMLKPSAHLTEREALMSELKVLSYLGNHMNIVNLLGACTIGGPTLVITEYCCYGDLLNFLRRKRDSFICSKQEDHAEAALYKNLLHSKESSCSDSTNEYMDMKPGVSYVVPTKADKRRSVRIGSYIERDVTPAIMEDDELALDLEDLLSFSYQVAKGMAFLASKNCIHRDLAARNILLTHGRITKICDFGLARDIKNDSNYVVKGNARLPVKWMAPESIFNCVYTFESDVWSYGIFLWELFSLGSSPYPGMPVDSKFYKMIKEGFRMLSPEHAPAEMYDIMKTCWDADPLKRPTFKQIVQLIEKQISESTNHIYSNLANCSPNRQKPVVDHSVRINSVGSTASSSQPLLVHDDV
SRC, sequence (P12931 whole entry): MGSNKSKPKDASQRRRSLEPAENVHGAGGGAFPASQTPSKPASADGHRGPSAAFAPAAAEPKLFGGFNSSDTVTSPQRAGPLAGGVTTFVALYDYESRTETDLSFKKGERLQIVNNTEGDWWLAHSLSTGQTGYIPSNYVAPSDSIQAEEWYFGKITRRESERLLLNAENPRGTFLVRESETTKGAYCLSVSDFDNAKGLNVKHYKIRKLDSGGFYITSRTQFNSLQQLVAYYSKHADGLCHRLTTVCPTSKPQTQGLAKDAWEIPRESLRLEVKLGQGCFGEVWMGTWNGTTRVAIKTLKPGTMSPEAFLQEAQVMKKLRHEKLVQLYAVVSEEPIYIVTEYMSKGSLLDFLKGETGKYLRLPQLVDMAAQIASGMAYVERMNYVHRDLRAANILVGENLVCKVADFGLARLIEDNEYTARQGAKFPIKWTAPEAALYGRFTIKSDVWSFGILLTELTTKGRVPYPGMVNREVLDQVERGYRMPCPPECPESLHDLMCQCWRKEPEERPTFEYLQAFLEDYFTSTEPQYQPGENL
EGFR, sequence (P00533 25-1210): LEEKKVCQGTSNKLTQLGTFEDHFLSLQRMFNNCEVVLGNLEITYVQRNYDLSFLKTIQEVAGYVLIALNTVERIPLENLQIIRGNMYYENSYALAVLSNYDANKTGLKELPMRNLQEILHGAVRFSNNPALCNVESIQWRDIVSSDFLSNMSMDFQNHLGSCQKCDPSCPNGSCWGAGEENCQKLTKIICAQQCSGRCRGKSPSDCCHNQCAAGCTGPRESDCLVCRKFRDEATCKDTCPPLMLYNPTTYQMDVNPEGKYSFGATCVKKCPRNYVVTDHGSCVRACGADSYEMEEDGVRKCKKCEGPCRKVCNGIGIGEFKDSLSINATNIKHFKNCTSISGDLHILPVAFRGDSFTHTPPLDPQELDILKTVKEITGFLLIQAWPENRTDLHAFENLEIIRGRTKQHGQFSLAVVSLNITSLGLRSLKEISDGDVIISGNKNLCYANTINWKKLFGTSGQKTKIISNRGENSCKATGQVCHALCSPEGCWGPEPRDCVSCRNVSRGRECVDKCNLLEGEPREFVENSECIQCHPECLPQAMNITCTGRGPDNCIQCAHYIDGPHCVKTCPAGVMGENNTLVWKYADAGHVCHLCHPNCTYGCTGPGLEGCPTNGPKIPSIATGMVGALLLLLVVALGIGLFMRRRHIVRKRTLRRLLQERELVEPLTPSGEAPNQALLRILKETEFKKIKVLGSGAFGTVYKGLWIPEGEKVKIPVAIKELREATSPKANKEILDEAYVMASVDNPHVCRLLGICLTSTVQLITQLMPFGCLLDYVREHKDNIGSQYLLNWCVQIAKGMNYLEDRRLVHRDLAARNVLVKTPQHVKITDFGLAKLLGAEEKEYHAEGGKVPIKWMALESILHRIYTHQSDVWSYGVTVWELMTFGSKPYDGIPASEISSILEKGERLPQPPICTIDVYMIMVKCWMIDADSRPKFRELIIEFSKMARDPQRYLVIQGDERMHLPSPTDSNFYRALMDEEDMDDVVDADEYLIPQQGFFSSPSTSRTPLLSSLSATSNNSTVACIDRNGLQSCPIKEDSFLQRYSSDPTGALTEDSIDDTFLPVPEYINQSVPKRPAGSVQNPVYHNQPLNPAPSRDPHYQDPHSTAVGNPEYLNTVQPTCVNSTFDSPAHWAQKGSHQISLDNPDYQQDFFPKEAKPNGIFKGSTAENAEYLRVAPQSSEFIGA
RET, sequence (P07949 29-1114): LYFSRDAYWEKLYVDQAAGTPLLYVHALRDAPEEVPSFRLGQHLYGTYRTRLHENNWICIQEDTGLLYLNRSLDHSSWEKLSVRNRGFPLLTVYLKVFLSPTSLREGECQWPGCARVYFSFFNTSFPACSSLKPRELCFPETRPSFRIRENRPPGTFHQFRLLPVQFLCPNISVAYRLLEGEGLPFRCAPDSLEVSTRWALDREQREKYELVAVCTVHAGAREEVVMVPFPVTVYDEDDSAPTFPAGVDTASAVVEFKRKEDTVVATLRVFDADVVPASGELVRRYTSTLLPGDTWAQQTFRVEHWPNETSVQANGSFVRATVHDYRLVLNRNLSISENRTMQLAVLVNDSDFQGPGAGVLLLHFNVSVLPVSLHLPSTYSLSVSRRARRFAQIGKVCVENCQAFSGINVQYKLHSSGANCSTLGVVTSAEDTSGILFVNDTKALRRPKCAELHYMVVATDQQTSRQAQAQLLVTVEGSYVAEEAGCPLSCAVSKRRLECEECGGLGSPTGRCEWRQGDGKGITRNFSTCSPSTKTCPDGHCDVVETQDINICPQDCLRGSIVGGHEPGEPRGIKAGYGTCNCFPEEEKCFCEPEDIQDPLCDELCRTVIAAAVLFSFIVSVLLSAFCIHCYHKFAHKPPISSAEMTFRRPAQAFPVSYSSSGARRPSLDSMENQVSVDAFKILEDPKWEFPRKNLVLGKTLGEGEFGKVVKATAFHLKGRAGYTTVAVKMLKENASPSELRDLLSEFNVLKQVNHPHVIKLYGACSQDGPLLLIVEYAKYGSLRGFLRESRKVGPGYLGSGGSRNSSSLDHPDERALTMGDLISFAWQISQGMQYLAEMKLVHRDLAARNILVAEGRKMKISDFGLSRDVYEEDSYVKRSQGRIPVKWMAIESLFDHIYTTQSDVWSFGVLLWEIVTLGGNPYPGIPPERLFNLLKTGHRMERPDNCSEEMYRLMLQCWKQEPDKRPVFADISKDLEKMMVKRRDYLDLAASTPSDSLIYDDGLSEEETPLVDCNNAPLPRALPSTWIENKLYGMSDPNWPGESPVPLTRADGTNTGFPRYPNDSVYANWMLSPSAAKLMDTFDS
Her4, sequence (Q15303 26-1308): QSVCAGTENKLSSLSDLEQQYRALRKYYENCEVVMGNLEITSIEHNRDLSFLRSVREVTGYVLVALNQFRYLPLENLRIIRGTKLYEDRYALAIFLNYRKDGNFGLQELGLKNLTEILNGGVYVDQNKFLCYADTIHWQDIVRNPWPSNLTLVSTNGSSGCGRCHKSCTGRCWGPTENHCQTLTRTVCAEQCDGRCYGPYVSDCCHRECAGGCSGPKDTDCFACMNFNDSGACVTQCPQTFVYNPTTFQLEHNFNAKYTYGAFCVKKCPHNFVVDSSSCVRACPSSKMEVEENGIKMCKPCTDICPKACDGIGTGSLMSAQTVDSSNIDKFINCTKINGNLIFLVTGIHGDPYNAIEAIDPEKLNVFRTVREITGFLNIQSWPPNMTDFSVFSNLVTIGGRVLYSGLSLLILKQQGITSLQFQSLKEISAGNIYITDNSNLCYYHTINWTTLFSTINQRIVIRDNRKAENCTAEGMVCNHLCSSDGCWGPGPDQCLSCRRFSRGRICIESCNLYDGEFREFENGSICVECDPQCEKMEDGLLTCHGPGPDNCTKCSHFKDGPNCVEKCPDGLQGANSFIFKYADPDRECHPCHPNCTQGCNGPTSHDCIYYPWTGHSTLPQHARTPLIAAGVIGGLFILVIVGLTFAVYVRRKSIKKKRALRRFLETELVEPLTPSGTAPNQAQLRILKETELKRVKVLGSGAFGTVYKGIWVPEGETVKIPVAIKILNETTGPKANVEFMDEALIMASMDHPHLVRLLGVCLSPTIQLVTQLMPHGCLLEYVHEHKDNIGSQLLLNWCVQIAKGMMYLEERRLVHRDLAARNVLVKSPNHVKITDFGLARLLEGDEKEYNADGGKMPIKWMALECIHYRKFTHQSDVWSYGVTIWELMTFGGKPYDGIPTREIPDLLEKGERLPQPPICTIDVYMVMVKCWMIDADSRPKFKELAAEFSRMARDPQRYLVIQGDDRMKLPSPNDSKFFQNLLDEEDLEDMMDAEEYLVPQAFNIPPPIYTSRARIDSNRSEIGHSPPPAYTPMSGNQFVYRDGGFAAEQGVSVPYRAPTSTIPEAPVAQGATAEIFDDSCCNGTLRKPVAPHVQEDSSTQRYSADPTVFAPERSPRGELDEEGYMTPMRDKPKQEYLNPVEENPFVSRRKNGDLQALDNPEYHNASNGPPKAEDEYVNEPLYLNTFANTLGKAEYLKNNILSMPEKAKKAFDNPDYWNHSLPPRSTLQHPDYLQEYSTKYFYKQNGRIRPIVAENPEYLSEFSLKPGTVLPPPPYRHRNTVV

SMILES	inhibition at 0.5 µM [1] [%]	inhibition at 0.5 µM [2] [%]	inhibition at 0.5 µM [3] [%]	inhibition at 0.5 µM [4] [%]	inhibition at 0.5 µM [5] [%]	inhibition at 0.5 µM [6] [%]	inhibition at 0.5 µM [7] [%]	inhibition at 0.5 µM [8] [%]	inhibition at 0.5 µM [9] [%]	inhibition at 0.5 µM [10] [%]	inhibition at 0.5 µM [11] [%]	inhibition at 0.5 µM [12] [%]	inhibition at 0.5 µM [13] [%]	inhibition at 0.5 µM [14] [%]	inhibition at 0.5 µM [15] [%]	GI50 [16] [nM]	selectivity for SRC and its family members over other kinases [17]	potency and selectivity in cancer cell lines compared with parent compound 506 [18]
COc1cc(-c2nn(CCN3CCC(N(C)C)CC3)c3ncnc(N)c23)ccc1NC(=O)OC(C)(C)C [Compound 506, Tert-butyl (4-(4-amino-1-(2-(4-(dimethylamino)piperidin-1-yl)ethyl)-1H-pyrazolo[3,4-d]pyrimidin-3-yl)-2-methoxyphenyl)carbamate, reference compound]	101	101	13.5	100	104	46.1	99.7	4.4	100	96.7	101	2.9	3.8	–	–	–	–	–
CNC1CCN(CCn2nc(-c3ccc(NC(=O)OC(C)(C)C)c(OC)c3)c3c(N)ncnc32)CC1 [Compound 5a, tert-butyl (4-(4-amino-1-(2-(4-(methylamino)piperidin-1-yl)ethyl)-1H-pyrazolo[3,4-d]pyrimidin-3-yl)-2-methoxyphenyl)carbamate]	102	102	13.6	101	107	46.3	99.7	2.8	99.4	97.6	105	1.7	-0.3	29.2	98.5	16.2	more selective than compound 506	retains the potency and selectivity characteristics of the parent compound 506
COc1cc(-c2nn(CCN3CCC(NC(C)C)CC3)c3ncnc(N)c23)ccc1NC(=O)OC(C)(C)C [Compound 8, tert-butyl (4-(4-amino-1-(2-(4-(isopropylamino)piperidin-1-yl)ethyl)-1H-pyrazolo[3,4-d]pyrimidin-3-yl)-2-methoxyphenyl)carbamate]	97.3	101	12.2	100	101	58.2	102	2.7	100	94.9	98.7	-7.3	-2.3	24.2	99.5	12.5	more selective than compound 506	–
